{"source": "paper PMC10327491", "about": "(Nature microbiology, 2022)", "target": "T1, BtSULT (Bacteroides thetaiotaomicron, UniProt Q8AAP8)", "T1 sequence (Q8AAP8 1-368)": "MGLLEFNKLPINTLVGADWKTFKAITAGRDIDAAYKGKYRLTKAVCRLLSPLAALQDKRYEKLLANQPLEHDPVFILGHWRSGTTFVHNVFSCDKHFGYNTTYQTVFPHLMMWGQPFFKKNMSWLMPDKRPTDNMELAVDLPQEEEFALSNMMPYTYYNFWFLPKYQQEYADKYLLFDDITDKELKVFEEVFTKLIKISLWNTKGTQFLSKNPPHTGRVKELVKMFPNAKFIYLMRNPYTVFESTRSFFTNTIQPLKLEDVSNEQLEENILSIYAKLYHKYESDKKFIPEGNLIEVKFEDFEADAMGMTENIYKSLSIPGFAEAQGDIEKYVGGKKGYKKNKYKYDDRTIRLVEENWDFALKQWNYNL", "test": "UPLC-MS of cholesterol sulfate formation", "type": "biochemical", "conditions": "100 uM PAPS, 50 uM cholesterol acceptor, pH 7, 37 °C; sulfonate donor", "data": [{"compound": "Nc1ncnc2c1ncn2[C@@H]1O[C@H](COP(=O)(O)OS(=O)(=O)O)[C@@H](OP(=O)(O)O)[C@H]1O", "note": "[adenosine 3'-phosphate-5'-phosphosulfate]", "values": [{"measurement": "UPLC-MS of cholesterol sulfate formation", "result": "BtSULT encodes a sulfotransferase that utilizes PAPS to sulfonate Ch"}]}]}
